Laboratory results: PMC10105947, “Discovery of novel amino acid production traits by evolution of synthetic co-cultures” (Microbial Cell Factories, 2023)

Key:
[1] = biological target: T1, ArgT (Corynebacterium glutamicum, UniProt Q8NQU2); assay: isothermal titration calorimetry, purified His10-ArgT (one measurement); format: binding
T1 construct: His10-ArgT, variant with cleavable His-tag and lacking the signal peptide

[2] = biological target: T1, ArgT; assay: isothermal titration calorimetry, purified His10-ArgT; format: binding

T1 sequence (Q8NQU2 27-304): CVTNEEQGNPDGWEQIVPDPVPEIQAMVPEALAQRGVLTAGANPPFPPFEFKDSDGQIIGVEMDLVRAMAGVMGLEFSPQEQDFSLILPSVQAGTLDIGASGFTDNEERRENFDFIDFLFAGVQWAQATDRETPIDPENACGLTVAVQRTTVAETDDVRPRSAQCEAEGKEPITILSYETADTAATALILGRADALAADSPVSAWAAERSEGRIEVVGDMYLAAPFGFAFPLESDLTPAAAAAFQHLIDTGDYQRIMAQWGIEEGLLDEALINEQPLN

Row | Kd [1] [nM] | SMILES | Kd [2] [nM]
1 | 432 | NC(=O)NCCC[C@H](N)C(=O)O [L-citrulline] | –
2 | – | N=C(N)NCCC[C@H](N)C(=O)O [L-arginine] | 29.5 ± 4.8
